In patent publication US20240293351A1, “METHODS OF ADMINISTERING SYNTHETIC TRITERPENOIDS” (REATA PHARMACEUTICALS HOLDINGS, LLC, priority 2020, published 2024):
Several values for one entry are separate records, joined by “and”; a condition that tells them apart may be missing. Equal entries are not always repeated. Where two headings read alike, the source gives them in different places.

Tests used:
clinical = conditions: human, in vivo, po
[1] = Drug-drug interaction study: bardoxolone methyl alone and with itraconazole in healthy volunteers; conditions: for AUC extra %, GM / AUC extra %, Mean / CL/F, GM / CL/F, Mean / λz, GM / λz, Mean / AUC(0-t) / AUC(0-inf) / Cmax / half-life / Vd/F / Tmax: plasma; for AUC(0-t) / AUC(0-inf) / Cmax / half-life / Vd/F / Tmax: human; for AUC(0-t): AUC0-t; for AUC(0-inf): AUC0-∞; for Vd/F: Vz/F
[2] = BEAM (402-C-0804) phase 2b study, crystalline formulation; assay type: in vivo, human
[3] = Period 1: single oral 10 mg bardoxolone methyl alone, fasted, n = 16
[4] = Period 2: single 10 mg bardoxolone methyl with daily 200 mg itraconazole, n = 15
[5] = bardoxolone methyl alone (Period 1)
[6] = oral, 10 mg, Geom. Mean, Bardoxolone Methyl Alone (A), paired analysis n = 15
[7] = oral, GM, Period 2: single 10 mg bardoxolone methyl with daily 200 mg itraconazole, n = 15
[8] = oral, Geom. Mean, Bardoxolone Methyl + Itraconazole (B), paired analysis n = 15
[9] = oral, Mean, Period 2: single 10 mg bardoxolone methyl with daily 200 mg itraconazole, n = 15
[10] = po, 10 mg, GM, Period 1: single oral 10 mg bardoxolone methyl alone, fasted, n = 16
[11] = po, 10 mg, Mean, Period 1: single oral 10 mg bardoxolone methyl alone, fasted, n = 16
[12] = ITT N = 1088, adjudicated primary endpoints
[13] = post-hoc ITT, Observed N, randomized 1088
[14] = post-hoc, Age ≤ 75, randomized 786
[15] = post-hoc, BL ACR ≤ 300, eGFR > 20, BNP ≤ 200, randomized 209
[16] = post-hoc, BL ACR ≤ 1000, eGFR > 20, Age ≤ 75, randomized 368
[17] = post-hoc, BL ACR ≤ 1000, randomized 798
[18] = post-hoc, BL BNP ≤ 200, randomized 559
[19] = post-hoc, BL eGFR > 20, randomized 735
[20] = post-hoc, No h/o HF, randomized 922
[21] = Crystalline 25 mg QD 52 weeks, N = 57
[22] = Crystalline 75 mg QD 52 weeks, N = 57
[23] = Crystalline 150 mg QD 52 weeks, N = 56

## COC(=O)[C@]12CCC(C)(C)C[C@H]1[C@H]1C(=O)C=C3[C@@]4(C)C=C(C#N)C(=O)C(C)(C)[C@@H]4CC[C@@]3(C)[C@]1(C)CC2 [Bardoxolone methyl, methyl-2-cyano-3,12-dioxooleana-1,9-dien-28-oic acid]
clinical
  half-life: 48 to 60 h
[1]; 10 mg + itraconazole 200 mg
  Tolerability of concomitant administration with itraconazole: generally safe and well tolerated
[1]; 10 mg single dose + itraconazole 200 mg daily
  Clearance (GM CL/F): 41.6 L/h
[1]; 10 mg single dose, alone
  Clearance (GM CL/F): 359 L/h
[1]; 10 mg single dose, itraconazole 200 mg daily
  Increase in exposure in the presence of itraconazole: > 5 fold
[1]; [3]
  AUC extra %, GM: 5.81%
  AUC extra %, Mean: 6.10%
  CL/F, GM: 359 L/h
  CL/F, Mean: 402 L/h
  λz, GM: 0.0370 h⁻¹
  λz, Mean: 0.0392 h⁻¹
[1]; [4]
  AUC extra %, GM: 7.64%
  AUC extra %, Mean: 8.47%
  CL/F, GM: 41.6 L/h
  CL/F, Mean: 42.8 L/h
  λz, GM: 0.0074 h⁻¹
  λz, Mean: 0.00762 h⁻¹
[1]; [5]
  Subjects with a TEAE, n (%): 3 (18.8%)
  Subjects with study drug-related TEAEs (diarrhea, nausea, headache), n (%): 1 (6.3%)
[1]; concomitant bardoxolone methyl and itraconazole (Period 2)
  Subjects with a TEAE, n (%): 1 (6.7%)
[1]; [6]
  AUC(0-t): 25.8 ng·h/mL
  AUC(0-inf): 27.6 ng·h/mL
  Cmax: 2.41 ng/mL
[1]; oral, 10 mg, Mean t1/2, 10 mg single dose, alone
  half-life: 19.8 h
[1]; [7]
  AUC(0-t): 220 ng·h/mL
  AUC(0-inf): 241 ng·h/mL
  Cmax: 16.6 ng/mL
  Vd/F: 5620 L
[1]; [8]
  AUC(0-t): 220 ng·h/mL
  AUC(0-inf): 241 ng·h/mL
  Cmax: 16.6 ng/mL
[1]; [9]
  AUC(0-t): 226 ng·h/mL
  AUC(0-inf): 248 ng·h/mL
  Cmax: 17.3 ng/mL
  Vd/F: 5900 L
  Tmax: 3.1 h
[1]; oral, Mean t1/2, 10 mg single dose + itraconazole 200 mg daily
  half-life: 95.9 h
[1]; oral, Median, Period 2: single 10 mg bardoxolone methyl with daily 200 mg itraconazole, n = 15
  Tmax: 3 h
[1]; oral, t½, Mean, Period 2: single 10 mg bardoxolone methyl with daily 200 mg itraconazole, n = 15
  half-life: 95.9 h
[1]; oral, t½, Median, Period 2: single 10 mg bardoxolone methyl with daily 200 mg itraconazole, n = 15
  half-life: 97.7 h
[1]; [10]
  AUC(0-t): 26.1 ng·h/mL
  AUC(0-inf): 27.8 ng·h/mL
  Cmax: 2.43 ng/mL
  Vd/F: 9700 L
[1]; [11]
  AUC(0-t): 29.3 ng·h/mL
  AUC(0-inf): 31 ng·h/mL
  Cmax: 2.58 ng/mL
  Vd/F: 10200 L
  Tmax: 2.9 h
[1]; po, 10 mg, Median, Period 1: single oral 10 mg bardoxolone methyl alone, fasted, n = 16
  Tmax: 2.5 h
[1]; po, 10 mg, t½, Mean, Period 1: single oral 10 mg bardoxolone methyl alone, fasted, n = 16
  half-life: 19.8 h
[1]; po, 10 mg, t½, Median, Period 1: single oral 10 mg bardoxolone methyl alone, fasted, n = 16
  half-life: 20.3 h
[1]; whole study
  Changes in laboratory parameters: no clinically relevant mean or individual changes in laboratory parameters
  Deaths, SAEs, adverse events leading to discontinuation: No subjects died, had an SAE, or had an adverse event that led to discontinuation of study drug
BEACON, ITT, BARD 20 mg (N = 1088), deaths at database lock
  Occurrence of Death: 4.0%
BEACON, ITT, BARD 20 mg (N = 1088), events through last date of contact
  Occurrence of ESRD: 4.0%
[12]
  Patient's first event: CV death, patients: 26 n
  Patient's first event: Chronic dialysis, patients: 40 n
  Patient's first event: End stage renal disease (ESRD), patients: 43 n
  Patient's first event: Renal death, patients: 2 n
  Patient's first event: Renal transplant, patients: 1 n
ITT N = 1088, adjudicated, on or before study termination
  Composite primary efficacy outcome (ESRD or CV death), patients: 69 n
ITT, All Patients N = 1088
  SAE Infections and infestations, patients: 79
ITT, BL ACR ≤ 300, eGFR > 20, BNP ≤ 200, N = 209
  SAE Infections and infestations, patients: 9
ITT, BL ACR ≤ 1000, eGFR > 20, Age ≤ 75, N = 368
  SAE Infections and infestations, patients: 20
Safety Population N = 1092, 20 mg once daily
  Treatment-emergent SAE: Infections and infestations, patients: 79 n
Final analysis
  Fatal heart failure events: three
human, in vivo
  Hy's Law cases: no Hy's Law cases were observed
  Increase in BNP from baseline, Mean±SD: 225 ± 598 pg/mL
  K^+ Retention: None
  Mean WK 24 ΔeGFR: 6.1 and 5.5 and 7.6
  Mean increase in diastolic blood pressure: 1.4 mmHg
  Mean increase in systolic blood pressure: 1.9 mmHg
  N of patients with WK 24 BNP change 25% to 100% Increase: 45
  N of patients with WK 24 BNP change <25% Increase: 84
  N of patients with WK 24 BNP change ≥100% Increase: 82
  QTc prolongation: not associated with QTc prolongation
  SAE Endocrine disorders, patients: 1
human, in vivo, 24 weeks
  QTcF interval, change from baseline, 25th quartile: -13 ms
  QTcF interval, change from baseline, 75th quartile: 10 ms
  QTcF interval, change from baseline, Mean (SD): −0.9 (19.2) msec
  QTcF interval, change from baseline, Range (min, max): −88, 69
  QTcF interval, change from baseline, median: -1 ms
  QTcF interval, observed, 25th quartile: 407 ms
  QTcF interval, observed, 75th quartile: 443 ms
  QTcF interval, observed, Mean (SD): 425.8 (26.5) msec
  QTcF interval, observed, median: 425 ms
[13]
  All-Cause Death, patients: 44
  ESRD, patients with event: 47
[14]
  All-Cause Death, patients: 20
  ESRD, patients with event: 38
[15]
  All-Cause Death, patients: 5
  ESRD, patients with event: 1
[16]
  All-Cause Death, patients: 11
  ESRD, patients with event: 9
[17]
  All-Cause Death, patients: 32
  ESRD, patients with event: 21
[18]
  All-Cause Death, patients: 14
  ESRD, patients with event: 12
[19]
  All-Cause Death, patients: 27
  ESRD, patients with event: 18
[20]
  All-Cause Death, patients: 35
  ESRD, patients with event: 35
Prior to clinical database lock (Mar. 4, 2013)
  Deaths confirmed as cardiovascular, patients: 29
[2]; [21]
  AE, SOC Card: Cardiac failure congestive, patients n (%): 2 (4)
  AE, SOC Card: Dyspnoea paroxysmal nocturnal, patients n (%): 0
  AE, SOC Card: Oedema peripheral, patients n (%): 4 (7)
  AE, SOC Genrl: Generalised oedema, patients n (%): 2 (4)
  AE, SOC Genrl: Oedema peripheral, patients n (%): 11 (19)
  AE, SOC Inv: Ejection fraction decreased, patients n (%): 1 (2)
  AE, SOC Metab: Fluid overload, patients n (%): 3 (5)
  AE, SOC Metab: Oedema peripheral, patients n (%): 3 (5)
  AE, SOC Resp: Dyspnoea exertional, patients n (%): 1 (2)
  AE, SOC Resp: Dyspnoea, patients n (%): 2 (4)
  AE, SOC Resp: Orthopnoea, patients n (%): 0
  AE, SOC Resp: Pulmonary oedema, patients n (%): 0
  SAE, SOC Card: Cardiac failure congestive, patients n (%): 2 (4)
  SAE, SOC Genrl: Oedema peripheral, patients n (%): 0
  SAE, SOC Metab: Fluid overload, patients n (%): 1 (2)
  SAE, SOC Resp: Dyspnoea, patients n (%): 0
  SAE, SOC Resp: Pulmonary oedema, patients n (%): 0
[2]; [22]
  AE, SOC Card: Cardiac failure congestive, patients n (%): 3 (5)
  AE, SOC Card: Dyspnoea paroxysmal nocturnal, patients n (%): 1 (2)
  AE, SOC Card: Oedema peripheral, patients n (%): 3 (5)
  AE, SOC Genrl: Generalised oedema, patients n (%): 0
  AE, SOC Genrl: Oedema peripheral, patients n (%): 10 (18)
  AE, SOC Inv: Ejection fraction decreased, patients n (%): 0
  AE, SOC Metab: Fluid overload, patients n (%): 2 (4)
  AE, SOC Metab: Oedema peripheral, patients n (%): 1 (2)
  AE, SOC Resp: Dyspnoea exertional, patients n (%): 0
  AE, SOC Resp: Dyspnoea, patients n (%): 6 (11)
  AE, SOC Resp: Orthopnoea, patients n (%): 0
  AE, SOC Resp: Pulmonary oedema, patients n (%): 1 (2)
  SAE, SOC Card: Cardiac failure congestive, patients n (%): 2 (4)
  SAE, SOC Genrl: Oedema peripheral, patients n (%): 0
  SAE, SOC Metab: Fluid overload, patients n (%): 1 (2)
  SAE, SOC Resp: Dyspnoea, patients n (%): 0
  SAE, SOC Resp: Pulmonary oedema, patients n (%): 1 (2)
[2]; [23]
  AE, SOC Card: Cardiac failure congestive, patients n (%): 3 (5)
  AE, SOC Card: Dyspnoea paroxysmal nocturnal, patients n (%): 0
  AE, SOC Card: Oedema peripheral, patients n (%): 4 (7)
  AE, SOC Genrl: Generalised oedema, patients n (%): 0
  AE, SOC Genrl: Oedema peripheral, patients n (%): 11 (20)
  AE, SOC Inv: Ejection fraction decreased, patients n (%): 0
  AE, SOC Metab: Fluid overload, patients n (%): 0
  AE, SOC Metab: Oedema peripheral, patients n (%): 3 (5)
  AE, SOC Resp: Dyspnoea exertional, patients n (%): 3 (5)
  AE, SOC Resp: Dyspnoea, patients n (%): 4 (7)
  AE, SOC Resp: Orthopnoea, patients n (%): 0
  AE, SOC Resp: Pulmonary oedema, patients n (%): 0
  SAE, SOC Card: Cardiac failure congestive, patients n (%): 2 (4)
  SAE, SOC Genrl: Oedema peripheral, patients n (%): 1 (2)
  SAE, SOC Metab: Fluid overload, patients n (%): 0
  SAE, SOC Resp: Dyspnoea, patients n (%): 0
  SAE, SOC Resp: Pulmonary oedema, patients n (%): 0
[2]; crystalline formulation, titration design
  Blood pressure: no clear dose-related trend was observed in blood pressure
